Source: patent publication US4517004A, “Aryl phosphoric triamide and aryl phosphorodiamidate urease and nitrification inhibitors and urease and nitrification inhibited urea and reduced nitrogen based fertilizer compositions” (Allied Corporation, priority 1983, dated 1985)
Read-outs that look alike come from different tables or passages of the source.

Tests used:
[1] = test system: urease in soil (Cazenovia silt loam; Plano silt loam); experiment: Urease inhibition efficacy test in soil (urea remaining after incubation); format: biochemical; conditions: 40 micrograms compound per gram soil, 42.8 mg urea per 20 g soil, incubated 3 days at 25° C., triplicate; for % Inhibition 40 Micrograms per gram soil, Cazenovia pH 7.2: New York soil (Cazenovia silt loam)
Experimental: Efficacy tests were conducted to evaluate the efficacy of certain representative phosphoric triamide compounds of this invention as urease inhibitors in comparison with the known compound 4-aminophenylphosphoric triamide. The inhibition tests were run in a New York soil (Cazenovia silt loam, pH 7.0), or in Wisconsin soil (Plano silt loam). Evaluations (run in triplicate) consisted of applying 800 micrograms of the test compound in 5 mL of water and 42.8 mg of urea in 1 mL of water to 20 g of air-dry soil in a glass bottle. The bottle was capped with perforated aluminum foil and incubated at 25° C. for three days prior to extraction with 100 mL of a 2M KCl solution containing 0.5 mg of phenylmercuric acetate. The extracts were then analyzed for remaining urea using an autoanalyzer. Percent inhibition was calculated as [formula] where A is urea recovered from unincubated sample (urea added to soil and immediately extracted); B is urea recovered from inhibited sample; and C is urea recovered from the control (uninhibited sample).

[2] = molecular target: T1, jack bean urease (Sigma, Type IX) (Canavalia ensiformis, UniProt P07374); experiment: Efficacy test with commercial purified jack bean urease in homogeneous solution (modified Bremner procedure); format: biochemical; conditions: read-out: % Inhibition 10^-6 M
T1 construct: purchased Sigma Type IX
Experimental: Efficacy tests were also conducted with jack bean urease. The procedure of Bremner (see L. A. Douglas, J. M. Bremner, Soil Biol. Biochem., 3, 859-62 (1970 and references therein) was modified by replacing the soil as the source of urease with commercial purified jack bean urease (Sigma, Type IX). The incubation then proceeds in homogeneous solution. The results are generally parallel to those obtained in the soil test of Example IV and are given in Table II.

soil nitrification = experiment: Nitrification inhibition efficacy test in Cazenovia silt loam soil (nitrate formed from diammonium phosphate); conditions: Cazenovia silt loam pH 7.3
Experimental: Efficacy tests were conducted to evaluate the efficacy of certain representative phosphoric triamide compounds as nitrification inhibitors. All compounds were evaluated in Cazenovia silt loam soil (pH 7.3). The evaluations consisted of applying either simultaneously (to) or after 14 days (t14) a solution of 6.00 mg (300 μg/g soil) at diammonium phosphate in 1 mL of water to triplicate 20 g samples of air dry soil contained in 250 mL square glass bottles that had been treated with a solution of either 0 or 0.800 mg (40 μg/g soil) of the test compound in 5 mL of water. Each bottle was capped with perforated aluminum foil, incubated for 14 days at 25° C. after diammonium phosphate application, and then extracted with 100 mL of 2M potassium chloride containing 0.5 mg (5 mg/L) of phenylmercuric acetate. Each extract was allowed to settle, and an aliquot was frozen and then analyzed for nitrate using an autoanalyzer. The percent inhibition obtained during the incubation was calculated by the formula: [formula] where A is the nitrate recovered from unincubated soil before diammonium phosphate addition; B is nitrate recovered from uninhibited soil; and C is nitrate recovered from inhibited soil.

[3] = compound at 10^-6 M, purified jack bean urease, homogeneous solution

T1 sequence (P07374 whole entry, looked up): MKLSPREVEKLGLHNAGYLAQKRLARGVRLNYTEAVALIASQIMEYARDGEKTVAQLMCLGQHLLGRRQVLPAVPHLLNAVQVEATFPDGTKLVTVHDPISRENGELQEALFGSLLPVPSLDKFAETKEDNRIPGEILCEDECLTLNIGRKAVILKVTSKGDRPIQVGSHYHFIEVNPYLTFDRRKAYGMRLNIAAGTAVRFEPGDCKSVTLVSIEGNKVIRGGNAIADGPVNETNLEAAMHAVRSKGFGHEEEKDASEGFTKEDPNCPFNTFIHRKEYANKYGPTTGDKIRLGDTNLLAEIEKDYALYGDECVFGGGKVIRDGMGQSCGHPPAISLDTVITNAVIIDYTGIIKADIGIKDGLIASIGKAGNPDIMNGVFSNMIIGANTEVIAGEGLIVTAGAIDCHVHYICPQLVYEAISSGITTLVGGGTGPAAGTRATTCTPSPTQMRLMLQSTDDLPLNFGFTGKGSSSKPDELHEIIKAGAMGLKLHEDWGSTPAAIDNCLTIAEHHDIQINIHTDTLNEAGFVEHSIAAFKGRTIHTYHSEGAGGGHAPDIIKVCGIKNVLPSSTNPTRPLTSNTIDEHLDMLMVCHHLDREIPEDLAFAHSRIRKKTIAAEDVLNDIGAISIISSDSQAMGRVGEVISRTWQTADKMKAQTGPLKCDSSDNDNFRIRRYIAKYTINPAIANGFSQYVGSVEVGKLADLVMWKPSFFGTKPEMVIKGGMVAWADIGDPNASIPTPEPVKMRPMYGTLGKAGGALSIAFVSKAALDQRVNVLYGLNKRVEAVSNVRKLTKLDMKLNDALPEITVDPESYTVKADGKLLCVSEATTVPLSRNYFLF

Nc1ccc(NP(N)(N)=O)cc1 [4-Aminophenylphosphoric triamide, 4-aminophenylphosphoric triamide, reference compound]
% Inhibition 40 Micrograms per gram soil, Cazenovia pH 7.2 [1]: 55%
inhibition at 1 µM [2]: 0%

CN(c1ccc(O)cc1)P(N)(N)=O [N-(Methyl)-N-(4-hydroxyphenyl) Phosphoric triamide]
% Inhibition 40 Micrograms per gram soil, Cazenovia pH 7.2 [1]: 87%
% Inhibition 40 Micrograms per gram soil, Wisconsin pH 5.4 ([1]; Wisconsin soil (Plano silt loam), pH 5.4): 33%

CC(C)(C)c1cc(OP(N)(N)=O)ccc1O [Phosphorodiamidic Acid 3-(1',1'-dimethylethyl)-4-hydroxyphenyl Ester]
% Inhibition 40 Micrograms per gram soil, Cazenovia pH 7.2 [1]: 87%
inhibition at 1 µM [2, 3]: 29%
% Inhibition at 40 μg per gram of soil, t14 (soil nitrification; diammonium phosphate (300 μg/g soil) applied 14 days after compound (t14), 14 days at 25° C. after application): 0%
% Inhibition at 40 μg per gram of soil, t0 (soil nitrification; diammonium phosphate (300 μg/g soil) applied simultaneously with compound (t0), 14 days at 25° C.): 39%

Nc1ccc(OP(N)(N)=O)cc1 [4-Aminophenylphosphorodiamidate, 4-aminophenylphosphorodiamidate]
% Inhibition 40 Micrograms per gram soil, Cazenovia pH 7.2 [1]: 91%
inhibition at 1 µM [2, 3]: 80%
